Reference: patent publication US20050153395A1, “Unique integrin binding site in connective tissue growth factor (CTGF)” (CHILDREN'S HOSPITAL INC., priority 2003, published 2005)

Key:
[1] = system: pancreatic stellate cells (PSC); assay: PSC adhesion assay on coated wells; format: cell-based, rat; conditions: for restoration of CTGF-mediated PSC adhesion after EDTA: 10 mM cation, 5 mM EDTA; for inhibition of PSC adhesion to CTGF4: 2 μg/ml CTGF4 coat, EDTA 5 mM, antibodies 25 μg/ml, heparin 2 μg/ml, peptides 35 μM; for PSC adhesion supported by the coated substance: coated at 2 μg/ml; for inhibition of FN-mediated PSC adhesion: fibronectin coat
From the text: Rat PSCs were isolated by a modification of the method described by Phillips et al., Gut; 52:677-82, 2003. Briefly, pancreatic tissue was digested in situ with 0.03% collagenase P (Roche, Indianapolis, Ind.) in HBSS by perfusion through the thoracic aorta. This protocol was approved by the Institutional Animal Care and Use Committee of Children's Research Institute, Columbus, Ohio. The tissue was pooled, minced with scissors, and then digested with 0.05% collagenase P, 0.02% protease XIV (Sigma, St. Louis), and DNase I (Roche, Indianapolis, Ind.) in HBSS. The resulting cell suspension was centrifuged in a 12% Optiprep gradient at 1400 g for 14 minutes. Stellate cells separated into a hazy band just above the interface of a the gradient and the aqueous buffer. This band was harvested, and the cells washed and resuspended in DMEM supplemented with 25 mM Hepes buffer, 10% FBS, and 100 U/ml penicillin in, 100 μg/ml streptomycin. The, cells were maintained at 37° C. in a humidified atmosphere of 5% CO2/95% air.
The ability of activated PSC to adhere to non-tissue culture plastic microtiter wells coated with recombinant CTGF1-4, CTGF3-4 or CTGF4 was investigated. The solid phase binding assay was carried out as described in Example 2. […] To assess the possibility that CTGF-mediated PSC adhesion involved cell surface integrins, the effect of divalent cations on cell adhesion was examined, as described in Example 2. […]
Because CTGF is a heparin-binding protein, this property was further investigated.
To identify the peptides that bind to PSCs, cell adhesion assays were carried out as described in Example 3.
To further investigate the peptide binding, P2 or P5 (10 μM) or vehicle buffer alone (no add) were added to PSC cell suspensions for 30 minutes at room temperature.

integrin α5β1 = integrin α5β1 (Homo sapiens, UniProt P05556+P08648); assay: Solid phase ELISA of integrin α5β1 binding; conditions: for reversal of EDTA inhibition of α5β1 binding to CTGF4: 10 mM cation; for inhibition of cell-free binding of integrin α5β1 to FN: FN 4 μg/ml
Procedure: In a second approach, a solid phase binding assay was used in which CTGF1-4 or FN were individually coated onto microtiter wells that were subsequently incubated with purified integrin α5β1. The presence of immobilized integrin α5β1 was detected by ELISA using an anti-integrin α5β1 antibody similar to the methods described in Example 3 above. In addition, CTGF1-4 bound to integrin α5β1 in a dose-dependent manner, with maximal binding at 2 μg/ml CTGF. This level of CTGF1-4 (2 μg/ml) binding was the same as that elicited by 2 μg/ml FN, a well known ligand of integrin α5β1. In a similar experiment, 2 μg/ml of CTGF1-4;CTGF3-4 or CTGF4 were individually precoated onto microtiter wells. Using the solid-phase assay, integrin α5β1 bound to CTGF1-4, CTGF3-4 or CTGF4 See FIG. 5 (Panel B).
To directly analyze whether α5β1 integrin binds to CTGF4, microtiter wells coated with CTGF4 (2 μg/ml) or FN (4 μg/ml) were used in an ELISA assay to detect integrin binding, as described in Example 3. For these assays, 1 μg/ml integrin α5β1, alone or in the presence of 35 μM of P2peptide (CTGF[257-272]) and 35 μM of P5 peptide (CTGF [285-291]), were added to the precoated plates. […] The binding between CTGF4 and integrin α5 β1 was blocked by peptide P5 (CTGF [285-291]) or peptide P2 (CTGF[257-272]). […]

[2] = system: hepatic stellate cells (HSC); assay: HSC adhesion assay on coated wells (CyQUANT fluorescence); format: cell-based, rat; conditions: for effect of divalent cation on HSC adhesion to CTGF4: 10 mM cation, after EDTA; for inhibition of CTGF4-mediated HSC adhesion: wells coated 2 μg/ml CTGF4, antibody/IgG 25 μg/ml, heparin 2 μg/ml; for HSC adhesion supported by the coated substance: coated at 2 μg/ml
Procedure: CTGF4 is known to be expressed in hepatic stellate cells (HSC) and to induce proliferation and extracellular matrix (ECM) production in these cells. (Williams et al., J Hepatol 32, 754-761, 2000; Paradis et al., Lab Invest 82, 767-774, 2002). The following experiments were carried out to determine if HSCs adhere to CTGF. HSCs were isolated from normal Sprague-Dowley rate by sequential perfusion with pronase/collagenase and purified by density gradient separation as described in Vyas et al. (Gastroenterology 109: 889-898, 1995).
The cells were subsequently detached using 1 mM EDTA PBS (137 mM NaCl, 2.7 mM KCl, 4.3 mM Na2HPO4, 1.4 mM KH2PO4, pH 7.3), washed twice in DMEM and resuspended in serum free medium containing 0.5% BSA. The cells-were plated (1.25×10^4 cells/well) in a 96 well plate coated with one of the following: 2 μg/ml CTGF isoform (CTGF1-4, CTGF3-4, CTGF4), 1 μg/ml laminin, or 4 μg/ml vitronectin and incubated for 20 minutes at 37° C. Subsequently the cells were washed with PBS and the adherent cells were fixed with 10% formalin and stained with CyQUANT GR dye/cell lysis buffer (Molecular Probes , Eugene, Oreg.) according to the manufacturer's instructions. The number of cells that adhered to CTGF isoforms or ECM protein was quantified by measuring the sample fluorescence intensity at Ex/Em: 480/520 nm using a micro-plate reader (CytoFluor™ 2350).
To determine if the CTGF-mediated HSC adhesion was carried out through integrin receptors, the experiment described above were carried out in the presence and absence of 10 mM EDTA. […] It is widely believed that Mn^2+ induces conformational shifts that mimic the physiological activation of β1 and β3 integrins (Roberts et al., J Biol Chem 278: 1975-1985, 2003, van der Pauw et al., J Periodontal Res 37: 317-323, 2002) as Mn^2+-induced activation leads to enhanced ligand-binding affinity and cell adhesion (Mould et al., J Biol Chem 277: 19800-19805, 2002, Loftus & Liddington J Clin Invest 100: S77-81, 1997, Lin et al., J Biol Chem 272: 14236-14243, […]).
Synthetic peptides GRGDsp (1 mM), GRGEsp (1 mM), Echistatin (2 μM) or vehicle buffer alone were added to the, HSC culture medium 30 minutes prior to plating.
In addition, adhesion assays as described in Example 1 were carried out in CTGF4 coated plates in the presence and absence of monoclonal antibody specific for αvβ3 (LM609).

CTGF promoter = CTGF promoter luciferase reporter pCCN2-Luc in PSCs; format: cell-based, rat; conditions: P<0.01 compared with no stimulation
Procedure: TGF-β1 is a well characterized transcriptional activator of CTGF in other cell types. To further examine the mechanism by which TGF-β1 and other fibrogenic stimulators could influence CTGF production in PSCs, CTGF promoter activity in PSCs was evaluated using the luciferase reporter, pCCN2-Luc, as described in Gao et al., (J Hepatol 2004;40:431-8).

integrin αvβ3 = integrin αvβ3 (Homo sapiens, UniProt P05106+P06756); assay: Solid phase ELISA of integrin αvβ3 binding; conditions: for inhibition of αvβ3 binding to CTGF4: 35 μM peptide pre-incubated with 1 μg/ml αvβ3
Procedure: Solid phase binding studies were also performed to investigate the binding of CTGF isoforms and αvβ3. Each CTGF isoform or vitronectin was individually coated onto microtiter wells at different concentrations, and the subsequent binding of αvβ3 was detected by ELISA using an anti-human αvβ3 monoclonal antibody. […] Saturation of binding occurred at 2 μg/ml for each CTGF isoform and 4 μg/ml for vitronectin.
In order to identify the αvβ3 binding site in CTGF4, eighteen synthetic peptides spanning the entire C-terminal region of CTGF4 (residues 246-349 of SEQ ID NO: 1) were synthesized and used as potential blocking agents in the solid phase binding studies as described in Example 3. Microtiter wells (Dynex Technology) were pre-coated with different CTGF isoforms at desired concentrations at 4° C. for 16 hours, and then blocked with 2% BSA at room temperature for 2 hours. The plates were washed, four times with PBS, pH 7.3, containing 1 mM CaCl2 and 1 mM MgCl2. Integrin αvβ3 (1 μg/ml) was pre-incubated with each synthetic peptide for 1 hour in blocking solution, and then added to each well, and incubated at room temperature for 3 hours. Integrin αvβ3 was detected by successive incubation with anti-human αvβ3 monoclonal antibody diluted in blocking solution (1:1000), and followed by HRP-conjugated goat anti-mouse IgG (1:4000). The color reaction was developed using the horseradish peroxidase ELISA reagents (Chemicon), and the absorbance at 450 nm was measured using Bio Assay Reader (HTS700).
The ability of mutant CTGF4 to bind to integrin αvβ3 was assessed by solid phase ELISA which measured the ability of purified integrin αvβ3 to bind to the CTGF4 mutants.

PSCs [3] = assay: PSC chemotaxis (migration) assay in culture insert; format: cell-based, rat; conditions: substance in lower chamber
Procedure: To examine whether CTGF plays a role in PSC migration, a chemotaxis assay was carried out in which the migratory behavior of PSCs in the upper chamber of a culture insert was assessed following addition of CTGF to the lower chamber. […] PSC migration was also promoted by FN, PDGF or TGF-β1.

PSCs [4] = assay: PSC DNA synthesis, [3H]thymidine incorporation; format: cell-based, rat; conditions: 24 hours; CTGF1-4 effect in 0.1% serum, not in serum-free medium
Procedure: To measure the effect of CTGF on cell proliferation, DNA synthesis was measured by ^3H incorporation in PSCs. The cells were incubated for 24 hours with 0.2 μCi [^3H] thymidine in each well (24-well plate). The incorporation of [^3H] thymidine into PSC DNA was determined using a scintillation counter after the cells had been washed with PBS, fixed with 10% methanol, treated with cold 5% trichloroacetic acid, and lysed in 0.3 N NaOH.

[5] = EDTA 10 mM, GRGDsp 1 mM, Echistatin 2 μM

integrin αvβ3, sequence (P06756 31-889 limits assumed): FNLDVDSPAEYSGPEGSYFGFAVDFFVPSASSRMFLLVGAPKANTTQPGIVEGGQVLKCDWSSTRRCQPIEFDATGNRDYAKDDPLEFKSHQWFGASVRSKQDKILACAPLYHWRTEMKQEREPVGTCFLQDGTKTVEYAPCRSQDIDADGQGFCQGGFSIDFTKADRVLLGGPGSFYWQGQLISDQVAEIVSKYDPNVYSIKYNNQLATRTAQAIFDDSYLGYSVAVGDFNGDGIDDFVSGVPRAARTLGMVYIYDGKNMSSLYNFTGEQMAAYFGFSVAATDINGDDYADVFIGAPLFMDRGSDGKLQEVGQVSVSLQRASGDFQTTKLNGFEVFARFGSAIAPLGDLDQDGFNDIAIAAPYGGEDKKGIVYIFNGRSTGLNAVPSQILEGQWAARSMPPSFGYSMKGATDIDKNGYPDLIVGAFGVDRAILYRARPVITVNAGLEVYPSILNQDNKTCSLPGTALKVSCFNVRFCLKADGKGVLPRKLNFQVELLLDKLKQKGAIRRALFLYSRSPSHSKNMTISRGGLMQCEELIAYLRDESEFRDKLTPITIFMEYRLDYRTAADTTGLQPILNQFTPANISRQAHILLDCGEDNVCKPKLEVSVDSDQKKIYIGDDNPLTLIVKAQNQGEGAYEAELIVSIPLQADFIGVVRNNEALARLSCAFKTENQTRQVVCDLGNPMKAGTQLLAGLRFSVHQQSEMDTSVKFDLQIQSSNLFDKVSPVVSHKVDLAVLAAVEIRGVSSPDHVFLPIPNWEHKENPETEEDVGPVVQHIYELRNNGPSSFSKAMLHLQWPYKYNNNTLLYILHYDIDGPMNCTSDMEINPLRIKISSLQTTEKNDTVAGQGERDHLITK
integrin αvβ3, sequence (P06756 891-1048 partner limits assumed): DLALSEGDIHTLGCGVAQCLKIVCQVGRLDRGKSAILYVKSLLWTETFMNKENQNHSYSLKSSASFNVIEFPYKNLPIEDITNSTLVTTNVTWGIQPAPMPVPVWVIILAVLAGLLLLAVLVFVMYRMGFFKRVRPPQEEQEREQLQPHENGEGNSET
integrin αvβ3, sequence (P05106 27-788): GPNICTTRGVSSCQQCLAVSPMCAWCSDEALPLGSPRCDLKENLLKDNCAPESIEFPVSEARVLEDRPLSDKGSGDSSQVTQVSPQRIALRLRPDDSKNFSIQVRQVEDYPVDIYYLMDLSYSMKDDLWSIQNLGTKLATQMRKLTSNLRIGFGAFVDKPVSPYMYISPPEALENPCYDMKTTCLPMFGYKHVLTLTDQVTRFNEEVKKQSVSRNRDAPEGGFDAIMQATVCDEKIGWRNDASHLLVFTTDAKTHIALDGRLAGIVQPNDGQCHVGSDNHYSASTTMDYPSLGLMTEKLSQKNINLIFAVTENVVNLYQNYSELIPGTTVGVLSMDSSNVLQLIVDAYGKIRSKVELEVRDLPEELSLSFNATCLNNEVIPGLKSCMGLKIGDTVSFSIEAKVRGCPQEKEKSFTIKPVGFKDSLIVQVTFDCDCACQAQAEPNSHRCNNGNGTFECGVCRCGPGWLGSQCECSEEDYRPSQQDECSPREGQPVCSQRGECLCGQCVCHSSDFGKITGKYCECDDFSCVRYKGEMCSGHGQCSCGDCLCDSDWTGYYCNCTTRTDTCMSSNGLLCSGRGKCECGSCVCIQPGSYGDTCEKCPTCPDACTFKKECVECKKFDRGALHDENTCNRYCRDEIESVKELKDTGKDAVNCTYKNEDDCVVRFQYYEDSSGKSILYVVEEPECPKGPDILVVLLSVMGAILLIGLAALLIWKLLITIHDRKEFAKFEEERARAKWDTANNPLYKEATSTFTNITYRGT
integrin α5β1, sequence (P08648 42-894 limits assumed): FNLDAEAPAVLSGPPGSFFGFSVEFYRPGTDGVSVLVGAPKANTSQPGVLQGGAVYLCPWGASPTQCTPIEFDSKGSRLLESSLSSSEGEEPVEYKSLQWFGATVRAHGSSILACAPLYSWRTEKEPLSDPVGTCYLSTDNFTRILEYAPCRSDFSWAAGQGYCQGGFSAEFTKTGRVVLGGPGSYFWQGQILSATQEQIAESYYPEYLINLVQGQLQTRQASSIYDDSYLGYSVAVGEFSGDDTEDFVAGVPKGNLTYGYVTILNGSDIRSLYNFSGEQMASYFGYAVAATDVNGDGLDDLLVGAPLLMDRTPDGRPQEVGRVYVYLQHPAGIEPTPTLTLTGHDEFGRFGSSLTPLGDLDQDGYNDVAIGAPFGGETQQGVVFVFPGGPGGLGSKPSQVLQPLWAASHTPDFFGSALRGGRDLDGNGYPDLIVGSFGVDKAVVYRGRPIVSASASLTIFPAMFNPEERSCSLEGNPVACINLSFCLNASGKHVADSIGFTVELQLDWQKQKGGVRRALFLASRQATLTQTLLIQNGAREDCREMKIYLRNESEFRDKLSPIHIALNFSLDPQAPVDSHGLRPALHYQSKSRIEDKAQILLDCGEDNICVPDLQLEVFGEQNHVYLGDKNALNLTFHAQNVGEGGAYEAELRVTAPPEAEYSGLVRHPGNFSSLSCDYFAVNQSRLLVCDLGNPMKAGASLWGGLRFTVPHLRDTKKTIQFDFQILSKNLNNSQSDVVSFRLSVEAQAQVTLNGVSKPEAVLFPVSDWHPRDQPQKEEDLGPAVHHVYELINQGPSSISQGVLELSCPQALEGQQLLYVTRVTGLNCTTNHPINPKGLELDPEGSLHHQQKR
integrin α5β1, sequence (P08648 895-1049 partner limits assumed): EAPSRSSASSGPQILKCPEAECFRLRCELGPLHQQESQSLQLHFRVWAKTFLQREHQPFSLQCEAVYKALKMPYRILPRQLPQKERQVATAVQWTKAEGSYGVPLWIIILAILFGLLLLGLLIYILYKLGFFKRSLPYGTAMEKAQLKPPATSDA
integrin α5β1, sequence (P05556 21-798): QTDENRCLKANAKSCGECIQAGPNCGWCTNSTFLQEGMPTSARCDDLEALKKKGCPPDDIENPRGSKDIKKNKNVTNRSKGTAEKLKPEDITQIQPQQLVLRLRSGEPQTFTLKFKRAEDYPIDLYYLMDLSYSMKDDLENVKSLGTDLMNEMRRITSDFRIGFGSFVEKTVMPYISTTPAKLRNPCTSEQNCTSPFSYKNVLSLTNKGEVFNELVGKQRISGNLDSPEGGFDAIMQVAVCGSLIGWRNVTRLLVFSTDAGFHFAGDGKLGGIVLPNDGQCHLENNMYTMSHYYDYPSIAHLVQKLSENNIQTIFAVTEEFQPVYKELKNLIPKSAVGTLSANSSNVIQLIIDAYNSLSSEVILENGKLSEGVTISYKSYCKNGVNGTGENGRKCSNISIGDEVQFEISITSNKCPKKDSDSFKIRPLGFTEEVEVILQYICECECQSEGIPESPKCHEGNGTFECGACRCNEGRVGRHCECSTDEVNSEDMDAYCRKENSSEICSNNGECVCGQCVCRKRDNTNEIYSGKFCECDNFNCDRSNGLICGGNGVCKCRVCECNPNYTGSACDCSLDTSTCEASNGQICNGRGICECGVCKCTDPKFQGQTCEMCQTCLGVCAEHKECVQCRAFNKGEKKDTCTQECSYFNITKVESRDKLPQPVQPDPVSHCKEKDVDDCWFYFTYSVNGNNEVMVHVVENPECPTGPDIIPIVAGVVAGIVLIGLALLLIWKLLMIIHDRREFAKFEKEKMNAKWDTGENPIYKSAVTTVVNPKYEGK

[Ca+2] [Ca^2+]
restoration of CTGF-mediated PSC adhesion after EDTA [1]: restored
reversal of EDTA inhibition of α5β1 binding to CTGF4 (integrin α5β1): reversed
effect of divalent cation on HSC adhesion to CTGF4 [2]: completely abolished

[Mg+2] [Mg^2+]
restoration of CTGF-mediated PSC adhesion after EDTA [1]: restored
reversal of EDTA inhibition of α5β1 binding to CTGF4 (integrin α5β1): reversed
effect of divalent cation on HSC adhesion to CTGF4 [2]: restored

[Mn+2] [Mn^2+]
effect of divalent cation on HSC adhesion to CTGF4 [2]: restored

CC=O [acetaldehyde]
activity of pCCN2-Luc in PSC (CTGF promoter): significantly increased

CCO [ethanol]
activity of pCCN2-Luc in PSC (CTGF promoter): significantly increased

[Na+].[O-][Cl+2]([O-])[O-] [sodium chlorate]
inhibition of CTGF4-mediated HSC adhesion [2, 5]: Inability of HSC to adhere to CTGF4
inhibition of vitronectin-mediated HSC adhesion ([2]; wells coated 4 μg/ml vitronectin): unaffected

CTGF[259-272]: CTGF4 peptide that covers 87.5% of the sequence of peptide CTGF[257-272] (TPKISKPIKFELSG)
inhibition of αvβ3 binding to CTGF4 (integrin αvβ3): 67%

EENIKKGKKCIRTP (listed as Homo sapiens) [CTGF[247-260]]
HSC adhesion supported by the coated substance [2]: no adhesion ability

GRGDsp
inhibition of CTGF1-4-mediated HSC adhesion ([2]; wells coated 2 μg/ml CTGF1-4, EDTA 10 mM, GRGDsp 1 mM, Echistatin 2 μM): 45%
inhibition of CTGF3-4-mediated HSC adhesion ([2]; wells coated 2 μg/ml CTGF3-4, EDTA 10 mM, GRGDsp 1 mM, Echistatin 2 μM): 51%
inhibition of CTGF4-mediated HSC adhesion [2, 5]: 58%

GVCTDGR [Peptide P5]
inhibition of PSC adhesion to CTGF4 [1]: completely inhibited
PSC adhesion supported by the coated substance [1]: able to support the adhesion
inhibition of FN-mediated PSC adhesion [1]: able to block
inhibition of binding between CTGF4 and integrin α5β1 (integrin α5β1; peptides 35 μM, EDTA 5 mM): blocked
inhibition of cell-free binding of integrin α5β1 to FN (integrin α5β1; peptides 35 μM): blocked

IRTPAAAAPIKFELSG [Mutant 2, mutant CTGF4 protein with K261A, I262A, S263A, K264A]
HSC adhesion relative to wild-type CTGF4 ([2]; mutant CTGF4 proteins): completely unable to support HSC adhesion

IRTPKISKPIKFELSG [CTGF[257-272]]
inhibition of αvβ3 binding to CTGF4 (integrin αvβ3): completely inhibited
inhibition of αvβ3 binding to vitronectin (integrin αvβ3; 35 μM peptide, 4 μg/ml VN coat): 85%
inhibition of PSC adhesion to CTGF4 [1]: completely inhibited
PSC adhesion supported by the coated substance [1]: able to support the adhesion
inhibition of FN-mediated PSC adhesion [1]: unaffected
inhibition of cell-free binding of integrin α5β1 to FN (integrin α5β1; peptides 35 μM): did not block
HSC adhesion to coated peptide, saturation [2]: 2 µg/mL
HSC adhesion supported by the coated substance [2]: promoted HSC adhesion in a concentration-dependent manner

PDGF
PSC migration (PSCs [3]): promoted
activity of pCCN2-Luc in PSC (CTGF promoter): significantly increased
PSC proliferation (DNA synthesis) (PSCs [4]): significantly enhanced

chondroitinase ABC
inhibition of CTGF4-mediated HSC adhesion [2, 5]: no effect

vitronectin: ECM protein, known ligand of αvβ3 [reference compound]
saturation of αvβ3 binding at coating concentration (integrin αvβ3; 1 μg/ml integrin αvβ3): 4 µg/mL
